This assay has as its target T1, HiBiT tagged PARP14 (Homo sapiens, UniProt Q460N5).
T1 construct: engineered to contain a HiBiT tag on both alleles of the PARP14 gene; endogenous in cells; host or cells: Jurkat cells stably transfected with LgBiT (Promega), PARP14 locus edited by CRISPR/Cas9
Kind of assay: HiBiT assay for the degradation of PARP14 (HiBiT tagged PARP14 in LgBiT expressing Jurkat cells, 2 or 24 hours). Type of assay: cell-based. The settings on record: Assay B (Example B): HiBiT tagged PARP14 degradation in LgBiT expressing Jurkat cells, read-out: DC50. Put shortly:
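Luminescence from HiBiT–LgBiT complementation served as proxy for endogenous PARP14 level in edited LgBiT Jurkat cells (5,000/well). After 2 or 24 h compound exposure at 37 °C, signal read with Live Cell Substrate, expressed as % of 0.1% DMSO control, and fitted (4-parameter, free Hill) for DC50.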

Structures can show the parent of a compound that is named as a salt.

T1 sequence (Q460N5 whole entry): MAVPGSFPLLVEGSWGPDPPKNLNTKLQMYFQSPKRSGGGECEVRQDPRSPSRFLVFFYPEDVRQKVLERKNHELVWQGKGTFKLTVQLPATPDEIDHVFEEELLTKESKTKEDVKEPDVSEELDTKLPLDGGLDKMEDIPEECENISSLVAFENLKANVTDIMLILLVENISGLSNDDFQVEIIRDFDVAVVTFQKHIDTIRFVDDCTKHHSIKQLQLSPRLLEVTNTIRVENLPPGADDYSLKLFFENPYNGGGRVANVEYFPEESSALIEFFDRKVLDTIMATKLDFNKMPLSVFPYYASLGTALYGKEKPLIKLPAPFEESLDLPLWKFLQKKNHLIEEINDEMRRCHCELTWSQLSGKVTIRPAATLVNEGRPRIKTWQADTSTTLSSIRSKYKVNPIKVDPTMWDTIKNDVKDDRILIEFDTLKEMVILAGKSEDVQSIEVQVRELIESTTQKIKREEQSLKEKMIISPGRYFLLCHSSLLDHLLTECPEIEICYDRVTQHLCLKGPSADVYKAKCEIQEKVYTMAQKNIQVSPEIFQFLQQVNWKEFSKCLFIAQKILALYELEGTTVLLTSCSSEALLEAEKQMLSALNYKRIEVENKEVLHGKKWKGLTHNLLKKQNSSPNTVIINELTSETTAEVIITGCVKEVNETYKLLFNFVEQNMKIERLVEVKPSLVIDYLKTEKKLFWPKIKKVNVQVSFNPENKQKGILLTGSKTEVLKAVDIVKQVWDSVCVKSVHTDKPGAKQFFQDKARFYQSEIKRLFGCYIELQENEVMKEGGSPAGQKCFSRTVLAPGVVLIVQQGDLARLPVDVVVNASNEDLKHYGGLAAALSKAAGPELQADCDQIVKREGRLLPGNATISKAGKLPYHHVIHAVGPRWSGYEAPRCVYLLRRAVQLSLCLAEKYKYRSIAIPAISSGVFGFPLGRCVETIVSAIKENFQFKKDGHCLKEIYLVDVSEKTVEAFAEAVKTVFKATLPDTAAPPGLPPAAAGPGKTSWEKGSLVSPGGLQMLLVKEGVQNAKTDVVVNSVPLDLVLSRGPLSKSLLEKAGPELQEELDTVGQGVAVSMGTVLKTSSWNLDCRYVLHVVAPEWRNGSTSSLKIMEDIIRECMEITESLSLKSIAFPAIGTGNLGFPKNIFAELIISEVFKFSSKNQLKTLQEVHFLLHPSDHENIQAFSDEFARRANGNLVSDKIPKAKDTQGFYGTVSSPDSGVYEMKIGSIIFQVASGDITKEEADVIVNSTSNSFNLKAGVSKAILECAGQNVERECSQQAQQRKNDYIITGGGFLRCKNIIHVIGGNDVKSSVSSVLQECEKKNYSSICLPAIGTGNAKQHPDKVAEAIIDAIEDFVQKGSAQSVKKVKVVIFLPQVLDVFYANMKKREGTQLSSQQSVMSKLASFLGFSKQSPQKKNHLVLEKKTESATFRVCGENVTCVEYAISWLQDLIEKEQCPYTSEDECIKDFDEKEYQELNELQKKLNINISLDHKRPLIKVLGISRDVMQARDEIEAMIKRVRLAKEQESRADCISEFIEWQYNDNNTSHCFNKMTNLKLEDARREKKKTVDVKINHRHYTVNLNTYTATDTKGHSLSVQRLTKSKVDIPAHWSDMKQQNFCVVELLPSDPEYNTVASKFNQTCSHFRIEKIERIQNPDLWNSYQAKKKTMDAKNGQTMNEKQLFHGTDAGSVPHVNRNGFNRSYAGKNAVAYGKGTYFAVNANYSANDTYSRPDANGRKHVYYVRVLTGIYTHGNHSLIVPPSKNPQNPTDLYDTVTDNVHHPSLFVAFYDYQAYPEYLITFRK

Regarding `O=C1CCC(Nc2ccc(NC(=O)[C@@H]3CCN(CCN4CCC(COc5cc(F)c6c(=O)[nH]c(COC7CCOCC7)nc6c5)CC4)C3)c(F)c2)C(=O)N1` (stereo partly drawn) [Example 200, (3R)-N-(4-((2,6-dioxopiperidin-3-yl)amino)-2-fluorophenyl)-1-(2-(4-(((5-fluoro-4-oxo-2-(((tetrahydro-2H-pyran-4-yl)oxy)methyl)-3,4-dihydroquinazolin-7-yl)oxy)methyl)piperidin-1-yl)ethyl)pyrrolidine-3-carboxamide], the 50% degradation concentration (DC50) is less than 0.03 µM. Next, `O=C1CCC(Nc2ccc(NC(=O)C3CCN(CCN4CCC(COc5cc(F)c6c(=O)[nH]c(COC7CCOCC7)nc6c5)CC4)CC3)c(F)c2)C(=O)N1` (stereo not shown) [Example 201, N-(4-((2,6-dioxopiperidin-3-yl)amino)-2-fluorophenyl)-1-(2-(4-(((5-fluoro-4-oxo-2-(((tetrahydro-2H-pyran-4-yl)oxy)methyl)-3,4-dihydroquinazolin-7-yl)oxy)methyl)piperidin-1-yl)ethyl)piperidine-4-carboxamide]: less than 0.03 µM. With `CN(C(=O)C1CCN(CCN2CCC(COc3cc(F)c4c(=O)[nH]c(COC5CCOCC5)nc4c3)CC2)CC1)c1ccc(NC2CCC(=O)NC2=O)cc1F` (stereo not shown) [Example 202, N-(4-((2,6-dioxopiperidin-3-yl)amino)-2-fluorophenyl)-1-(2-(4-(((5-fluoro-4-oxo-2-(((tetrahydro-2H-pyran-4-yl)oxy)methyl)-3,4-dihydroquinazolin-7-yl)oxy)methyl)piperidin-1-yl)ethyl)-N-methylpiperidine-4-carboxamide] the figure was less than 0.03 µM; with `Cn1nc(N2CCC(=O)NC2=O)c2cccc(C3CCN(CCN4CCC(COc5cc(F)c6c(=O)[nH]c(COC7CCOCC7)nc6c5)CC4)CC3)c21` [Example 203, 1-(7-(1-(2-(4-(((5-fluoro-4-oxo-2-(((tetrahydro-2H-pyran-4-yl)oxy)methyl)-3,4-dihydroquinazolin-7-yl)oxy)methyl)piperidin-1-yl)ethyl)piperidin-4-yl)-1-methyl-1H-indazol-3-yl)dihydropyrimidine-2,4(1H,3H)-dione], less than 0.03 µM. With `O=C1CCN(c2ccc(C3CCN(CCN4CCC(COc5cc(F)c6c(=O)[nH]c(COC7CCOCC7)nc6c5)CC4)CC3)c(F)c2)C(=O)N1` [Example 204, 1-(3-fluoro-4-(1-(2-(4-(((5-fluoro-4-oxo-2-(((tetrahydro-2H-pyran-4-yl)oxy)methyl)-3,4-dihydroquinazolin-7-yl)oxy)methyl)piperidin-1-yl)ethyl)piperidin-4-yl)phenyl)dihydropyrimidine-2,4(1H,3H)-dione] the figure was less than 0.03 µM. Consider `Cn1nc(N2CCC(=O)NC2=O)c2ccc(C3CCN(CCN4CCC(COc5cc(F)c6c(=O)[nH]c(COC7CCOCC7)nc6c5)CC4)CC3)c(F)c21` [Example 205, 1-(7-fluoro-6-(1-(2-(4-(((5-fluoro-4-oxo-2-(((tetrahydro-2H-pyran-4-yl)oxy)methyl)-3,4-dihydroquinazolin-7-yl)oxy)methyl)piperidin-1-yl)ethyl)piperidin-4-yl)-1-methyl-1H-indazol-3-yl)dihydropyrimidine-2,4(1H,3H)-dione], for which the DC50 was less than 0.03 µM. With `O=C1CCC(Nc2ccc(N3CCN(CCN4CCC(COc5ccc6c(=O)[nH]c(CSC7CCOCC7)nc6c5)CC4)CC3)c(F)c2)C(=O)N1` (stereo not shown) [Example 206, 3-((3-fluoro-4-(4-(2-(4-(((4-oxo-2-(((tetrahydro-2H-pyran-4-yl)thio)methyl)-3,4-dihydroquinazolin-7-yl)oxy)methyl)piperidin-1-yl)ethyl)piperazin-1-yl)phenyl)amino)piperidine-2,6-dione] the figure was less than 0.03 µM; with `Cn1nc(N2CCC(=O)NC2=O)c2cc(F)c(C3CCN(CCN4CCC(COc5cc(F)c6c(=O)[nH]c(CSC7CCOCC7)nc6c5)CC4)CC3)cc21` [Example 207, 1-(5-fluoro-6-(1-(2-(4-(((5-fluoro-4-oxo-2-(((tetrahydro-2H-pyran-4-yl)thio)methyl)-3,4-dihydroquinazolin-7-yl)oxy)methyl)piperidin-1-yl)ethyl)piperidin-4-yl)-1-methyl-1H-indazol-3-yl)dihydropyrimidine-2,4(1H,3H)-dione formate], less than 0.03 µM; with `O=C1CCN(c2ccc(C3CCN(CCN4CCC(COc5cc(F)c6c(=O)[nH]c(CSC7CCOCC7)nc6c5)CC4)CC3)c(F)c2)C(=O)N1` [Example 208, 1-(3-fluoro-4-(1-(2-(4-(((5-fluoro-4-oxo-2-(((tetrahydro-2H-pyran-4-yl)thio)methyl)-3,4-dihydroquinazolin-7-yl)oxy)methyl)piperidin-1-yl)ethyl)piperidin-4-yl)phenyl)dihydropyrimidine-2,4(1H,3H)-dione], less than 0.03 µM. Next, `O=C1CCN(c2cnc3cc(N4CCN(CCN5CCC(COc6cc(F)c7c(=O)[nH]c(CSC8CCOCC8)nc7c6)CC5)CC4)ccn23)C(=O)N1` [Example 209, 1-(7-(4-(2-(4-(((5-fluoro-4-oxo-2-(((tetrahydro-2H-pyran-4-yl)thio)methyl)-3,4-dihydroquinazolin-7-yl)oxy)methyl)piperidin-1-yl)ethyl)piperazin-1-yl)imidazo[1,2-a]pyridin-3-yl)dihydropyrimidine-2,4(1H,3H)-dione diformate]: less than 0.03 µM; `O=C1CCN(c2cncc3c(N4CCN(CCN5CCC(COc6cc(F)c7c(=O)[nH]c(CSC8CCOCC8)nc7c6)CC5)CC4)cccc23)C(=O)N1` [Example 210, 1-(8-(4-(2-(4-(((5-fluoro-4-oxo-2-(((tetrahydro-2H-pyran-4-yl)thio)methyl)-3,4-dihydroquinazolin-7-yl)oxy)methyl)piperidin-1-yl)ethyl)piperazin-1-yl)isoquinolin-4-yl)dihydropyrimidine-2,4(1H,3H)-dione]: less than 0.03 µM; `O=C1CCN(c2cnc3cc(C4CCN(CCN5CCC(COc6cc(F)c7c(=O)[nH]c(CSC8CCOCC8)nc7c6)CC5)CC4)ccn23)C(=O)N1` [Example 211, 1-(7-(1-(2-(4-(((5-fluoro-4-oxo-2-(((tetrahydro-2H-pyran-4-yl)thio)methyl)-3,4-dihydroquinazolin-7-yl)oxy)methyl)piperidin-1-yl)ethyl)piperidin-4-yl)imidazo[1,2-a]pyridin-3-yl)dihydropyrimidine-2,4(1H,3H)-dione]: less than 0.03 µM. Turning to `Cn1nc(N2CCC(=O)NC2=O)c2cc(F)c(N3CCN(CCN4CCC(COc5cc(F)c6c(=O)[nH]c(CSC7CCOCC7)nc6c5)CC4)CC3)cc21` [Example 212, 1-(5-fluoro-6-(4-(2-(4-(((5-fluoro-4-oxo-2-(((tetrahydro-2H-pyran-4-yl)thio)methyl)-3,4-dihydroquinazolin-7-yl)oxy)methyl)piperidin-1-yl)ethyl)piperazin-1-yl)-1-methyl-1H-indazol-3-yl)dihydropyrimidine-2,4(1H,3H)-dione], the DC50 is less than 0.03 µM. Next, `O=C1CCC(Nc2ccc(N3CCN(CC4CCN(CCOc5cc(F)c6c(=O)[nH]c(CSC7CCOCC7)nc6c5)CC4)CC3)c(F)c2)C(=O)N1` (stereo not shown) [Example 213, 3-((3-fluoro-4-(4-((1-(2-((5-fluoro-4-oxo-2-(((tetrahydro-2H-pyran-4-yl)thio)methyl)-3,4-dihydroquinazolin-7-yl)oxy)ethyl)piperidin-4-yl)methyl)piperazin-1-yl)phenyl)amino)piperidine-2,6-dione]: less than 0.03 µM. With `O=C1CCC(Nc2ccc(N3CCC(N4CCC(N5CCC(COc6cc(F)c7c(=O)[nH]c(CSC8CCOCC8)nc7c6)CC5=O)CC4)CC3)c(F)c2)C(=O)N1` (stereo not shown) [Example 214, 3-((3-fluoro-4-(4-(((5-fluoro-4-oxo-2-(((tetrahydro-2H-pyran-4-yl)thio)methyl)-3,4-dihydroquinazolin-7-yl)oxy)methyl)-2-oxo-[1,4′:1′,4″-terpiperidin]-1″-yl)phenyl)amino)piperidine-2,6-dione formate] the figure was less than 0.03 µM; with `O=C1CCC(Nc2ccc(N3CCC4(CCN(CCOc5cc(F)c6c(=O)[nH]c(CSC7CCOCC7)nc6c5)CC4)CC3)c(F)c2)C(=O)N1` (stereo not shown) [Example 215, 3-((3-fluoro-4-(9-(2-((5-fluoro-4-oxo-2-(((tetrahydro-2H-pyran-4-yl)thio)methyl)-3,4-dihydroquinazolin-7-yl)oxy)ethyl)-3,9-diazaspiro[5.5]undecan-3-yl)phenyl)amino)piperidine-2,6-dione], less than 0.03 µM.

In the case of `O=C1CCC(Nc2ccc(N3CCN(CCN4CCC(COc5cc(F)c6c(=O)[nH]c(CCC7CCOCC7)nc6c5)CC4)CC3)cc2F)C(=O)N1` (stereo not shown) [Example 216, 3-((2-fluoro-4-(4-(2-(4-(((5-fluoro-4-oxo-2-(2-(tetrahydro-2H-pyran-4-yl)ethyl)-3,4-dihydroquinazolin-7-yl)oxy)methyl)piperidin-1-yl)ethyl)piperazin-1-yl)phenyl)amino)piperidine-2,6-dione], the 50% degradation concentration (DC50) was less than 0.03 µM.

As for `O=C1CCC(Nc2ccc(N3CCC(CN4CC(N5CCC(COc6cc(F)c7c(=O)[nH]c(CSC8CCOCC8)nc7c6)CC5)C4)CC3)c(F)c2)C(=O)N1` (stereo not shown) [Example 217, 3-((3-fluoro-4-(4-((3-(4-(((5-fluoro-4-oxo-2-(((tetrahydro-2H-pyran-4-yl)thio)methyl)-3,4-dihydroquinazolin-7-yl)oxy)methyl)piperidin-1-yl)azetidin-1-yl)methyl)piperidin-1-yl)phenyl)amino)piperidine-2,6-dione formate], the half-maximal degradation concentration (DC50) is less than 0.03 µM. For `O=C1CCC(Nc2cc(F)c(N3CCC(N4CC(N5CCC(COc6cc(F)c7c(=O)[nH]c(CSC8CCOCC8)nc7c6)CC5)C4)CC3)cc2F)C(=O)N1` (stereo not shown) [Example 218, 3-((2,5-difluoro-4-(4-(3-(4-(((5-fluoro-4-oxo-2-(((tetrahydro-2H-pyran-4-yl)thio)methyl)-3,4-dihydroquinazolin-7-yl)oxy)methyl)piperidin-1-yl)azetidin-1-yl)piperidin-1-yl)phenyl)amino)piperidine-2,6-dione], the 50% degradation concentration (DC50) was less than 0.03 µM.
